Key:
[1] = molecular target: Protein kinase C, PKC; classical/novel (Homo sapiens) (UniProt O94806+P17252+P05129+Q05655+P05771+Q02156+P24723+Q15139+Q04759); experiment: Displacement of phorbol [3H]PDBu from protein kinase C; A - Did displace phorbol (PDBu) at 50 uM or less; type: protein assay
Protein kinase C (PKC) = experiment: Inhibitory activity against protein kinase C (PKC); type: protein assay, Homo sapiens
[2] = Inhibitory activity against c-AMP kinase; Did not inhibit c-AMP kinase

Compound | Phorbol displacement [1] | IC50 (Protein kinase C (PKC)) | IC50 [2]
C=C1O[C@H]2[C@@H]3OC(=O)c4cc(O)c(O)c(O)c4-c4c(cc(O)c(O)c4O)C(=O)OC[C@H]2O[C@@H](OC(=O)c2cc(O)c(O)c(O)c2)[C@@H]3OC(=O)c2cc(O)c(O)c3c2C2C(O)(O3)C3(O)OC4(C(=O)OC5C(O)COC54O)C12CC3=O (some centres not stated) | < 50 µM | 17 µM | Not Active
CC1(C)CC[C@]2(C(=O)O)CC[C@]3(C)C(=CCC4[C@@]5(C)C[C@@H](O)[C@@H]6OC(=O)c7cc(O)c(O)c(O)c7-c7c(cc(O)c(O)c7O)C(=O)OC[C@@]6(CO)C5CC[C@]43C)C2C1 (some centres not stated) | < 50 µM | 23 µM | Not Active
O=C(O)C1=C[C@@H](OC(=O)c2cc(O)c(O)c(O)c2)[C@@H](O)[C@H](OC(=O)c2cc(O)c(O)c(O)c2)C1 |  | > 100 µM | 
CC1(C)CC[C@]2(C(=O)O[C@@H]3O[C@H](CO)[C@@H](O)[C@H](O)[C@H]3O)CC[C@]3(C)C(=CC[C@@H]4[C@@]5(C)C[C@@H](O)[C@@H]6OC(=O)c7cc(O)c(O)c(O)c7-c7c(cc(O)c(O)c7O)C(=O)OC[C@@]6(CO)C5CC[C@]43C)C2C1 (some centres not stated) | < 50 µM | 18 µM | Not Active
O=C(O[C@@H]1O[C@H](CO)[C@@H](O)[C@H](O)[C@H]1O)c1cc(O)c(O)c(O)c1 |  | > 100 µM | 
O=C(OC[C@H]1O[C@@H](OC(=O)c2cc(O)c(O)c(O)c2)[C@H](OC(=O)c2cc(O)c(O)c(O)c2)[C@@H](OC(=O)c2cc(O)c(O)c(O)c2)[C@@H]1OC(=O)c1cc(O)c(O)c(O)c1)c1cc(O)c(O)c(O)c1 [PENTAGALLOYL GLUCOSE] | < 50 µM | 4 µM | 
Oc1cc(O)c2c(c1)O[C@H](c1ccc(O)c(O)c1)[C@H](O)[C@H]2c1c(O)cc(O)c2c1O[C@H](c1ccc(O)c(O)c1)[C@H](O)[C@H]2c1c(O)cc(O)c2c1O[C@H](c1ccc(O)c(O)c1)[C@H](O)C2 [PROCYANIDIN C1] | < 50 µM | 40 µM | Not Active
O=C(O[C@H]1[C@H](O)C[C@](OC(=O)c2cc(O)c(O)c(O)c2)(C(=O)O)C[C@H]1O)c1cc(O)c(O)c(O)c1 |  | > 100 µM | Not Active
O=C(O[C@@H]1O[C@@H]2COC(=O)c3cc(O)c(O)c(O)c3-c3c(cc(O)c(O)c3O)C(=O)O[C@H]([C@H]1O)[C@@H]2O)c1cc(O)c(O)c(O)c1 [CORILAGIN] |  | 20 µM | 
O=C1OC2COC(=O)c3cc(O)c(O)c(O)c3-c3c(O)c(O)c4oc(=O)c5c(c(O)c(O)c6oc(=O)c3c4c65)-c3c(cc(O)c(O)c3O)C(=O)OC2C2OC(=O)c3c(c(O)c(O)c(O)c3-c3c(O)c(O)c(O)c4c3C(=O)OC2[C@@H]4O)-c2c1cc(O)c(O)c2O (some centres not stated) |  | 4 µM | 
O=C(O)C1=C[C@@H](O)[C@@H](O)[C@H](OC(=O)c2cc(O)c(O)c(OC(=O)c3cc(O)c(O)c(O)c3)c2)C1 |  | > 100 µM | 
O=C(OC[C@H]1O[C@@H](O)[C@H](OC(=O)c2cc(O)c(O)c(O)c2)[C@@H](OC(=O)c2cc(O)c(O)c(O)c2)[C@@H]1OC(=O)c1cc(O)c(O)c(O)c1)c1cc(O)c(O)c(O)c1 | < 50 µM | 82 µM | Not Active
O=C(OC[C@H]1O[C@@H](OC(=O)c2cc(O)c(O)c(O)c2)[C@H](O)[C@@H](O)[C@@H]1O)c1cc(O)c(O)c(O)c1 |  | > 100 µM | 
O=C(OC[C@H]1O[C@H](OC(=O)c2cc(O)c(O)c(O)c2)[C@H](OC(=O)c2cc(O)c(O)c(O)c2)[C@@H](OC(=O)c2cc(O)c(O)c(O)c2)[C@@H]1O)c1cc(O)c(O)c(O)c1 | < 50 µM | 20 µM | Not Active
O=C(OC[C@H]1O[C@@H](OC(=O)c2cc(O)c(O)c(O)c2)[C@H](OC(=O)c2cc(O)c(O)c(O)c2)[C@@H](O)[C@@H]1O)c1cc(O)c(O)c(O)c1 |  | > 100 µM | 
O=C(O)C[C@@H]1C(=O)O[C@H]2[C@@H]3OC(=O)c4cc(O)c(O)c(O)c4-c4c(cc(O)c(O)c4O)C(=O)OC[C@H]2O[C@@H](OC(=O)c2cc(O)c(O)c(O)c2)[C@@H]3OC(=O)c2cc(O)c(O)c3c2[C@H]1[C@H](O)C(=O)O3 [CHEBULAGIC ACID] |  | 30 µM | 
O=C1O[C@H]2[C@H](O)[C@@H](OC(=O)c3cc(O)c(O)c4c3C3C1=CC(=O)C(O)(O)C3(O)O4)[C@@H](OC(=O)c1cc(O)c(O)c(O)c1)O[C@@H]2CO (some centres not stated) |  | 86 µM | 
O=C(O)C1=C[C@@H](O)[C@@H](O)[C@H](OC(=O)c2cc(O)c(O)c(O)c2)C1 |  | > 100 µM | 
O=C(O[C@H]1[C@H](O)C[C@](O)(C(=O)O)C[C@H]1O)c1cc(O)c(O)c(O)c1 |  | > 100 µM | 
Oc1cc(O)c2c(c1)O[C@@]1(c3ccc(O)c(O)c3)Oc3cc(O)c4c(c3C2[C@H]1O)O[C@H](c1ccc(O)c(O)c1)[C@H](O)C4 |  | > 100 µM | 

Compound | Phorbol displacement [1] | IC50 (Protein kinase C (PKC)) | IC50 [2]
Oc1cc(O)c2c(c1)O[C@H](c1ccc(O)c(O)c1)[C@H](O)[C@H]2c1c(O)cc(O)c2c1O[C@@]1(c3ccc(O)c(O)c3)Oc3cc(O)c4c(c3C2[C@H]1O)O[C@H](c1ccc(O)c(O)c1)[C@H](O)C4c1c(O)cc(O)c2c1O[C@H](c1ccc(O)c(O)c1)[C@H](O)C2 (some centres not stated) | < 50 µM | 15 µM | Not Active
Oc1cc(O)c2c(c1)O[C@@]1(c3ccc(O)c(O)c3)Oc3cc(O)c4c(c3C2[C@H]1O)O[C@H](c1ccc(O)c(O)c1)[C@H](O)C4c1c(O)cc(O)c2c1O[C@H](c1ccc(O)c(O)c1)[C@H](O)C2 (some centres not stated) | < 50 µM | 30 µM | Not Active
O=C(O[C@H]1[C@H](O)C[C@](OC(=O)c2cc(O)c(O)c(O)c2)(C(=O)O)C[C@H]1OC(=O)c1cc(O)c(O)c(O)c1)c1cc(O)c(O)c(O)c1 | < 50 µM | > 100 µM | Not Active
O=C(O)C[C@@H]1C(=O)O[C@H]2[C@H](OC(=O)c3cc(O)c(O)c(O)c3)[C@@H](OC(=O)c3cc(O)c(O)c4c3[C@H]1[C@H](O)C(=O)O4)[C@@H](OC(=O)c1cc(O)c(O)c(O)c1)O[C@@H]2COC(=O)c1cc(O)c(O)c(O)c1 |  | 30 µM | 
O=C(OC[C@H]1O[C@H](O)[C@@](O)(COC(=O)c2cc(O)c(O)c(O)c2)[C@@H]1OC(=O)c1cc(O)c(O)c(O)c1)c1cc(O)c(O)c(O)c1 |  | > 100 µM | 
O=C(OC1Cc2c(O)cc(O)cc2O[C@@H]1c1ccc(O)c(O)c1)c1cc(O)c(O)c(O)c1 (some centres not stated) | < 50 µM | 48 µM | Not Active
O=C(O[C@@H]1C[C@](OC(=O)c2cc(O)c(O)c(O)c2)(C(=O)O)C[C@@H](OC(=O)c2cc(O)c(O)c(O)c2)[C@H]1OC(=O)c1cc(O)c(O)c(O)c1)c1cc(O)c(O)c(O)c1 | < 50 µM | 64 µM | Not Active
Oc1cc(O)c2c(c1)O[C@H](c1ccc(O)c(O)c1)C(O)C2 (some centres not stated) |  | > 100 µM | 
O=C1O[C@H]2[C@H](OC(=O)c3cc(O)c(O)c(O)c3)[C@@H](OC(=O)c3cc(O)c(O)c4c3C3C1=CC(=O)C(O)(O)C3(O)O4)[C@@H](OC(=O)c1cc(O)c(O)c(O)c1)O[C@@H]2COC(=O)c1cc(O)c(O)c(O)c1 (some centres not stated) | < 50 µM | 16 µM | Not Active
O=C(OC1Cc2c(O)cc(O)c([C@H]3c4c(O)cc(O)c([C@H]5c6c(O)cc(O)cc6O[C@H](c6ccc(O)c(O)c6)[C@@H]5OC(=O)c5cc(O)c(O)c(O)c5)c4O[C@H](c4ccc(O)c(O)c4)C3OC(=O)c3cc(O)c(O)c(O)c3)c2O[C@@H]1c1ccc(O)c(O)c1)c1cc(O)c(O)c(O)c1 (some centres not stated) | < 50 µM | 2 µM | Not Active
O=C(OC[C@H]1O[C@H](OC(=O)c2cc(O)c(O)c(O)c2)[C@H](O)[C@@H](O)[C@@H]1OC(=O)c1cc(O)c(O)c(O)c1)c1cc(O)c(O)c(O)c1 |  | > 100 µM | 
Oc1cc(O)c2c(c1)O[C@H](c1ccc(O)c(O)c1)C(O)[C@H]2c1c(O)cc(O)c2c1O[C@H](c1ccc(O)c(O)c1)C(O)C2 (some centres not stated) |  | > 100 µM | 
O=C1OCC2OC(=O)c3cc(O)c(O)c(O)c3-c3c(O)c(O)c(O)c4c3C(=O)OC(C2OC(=O)c2cc(O)c(O)c(O)c2-c2c1cc(O)c(O)c2O)C1OC(=O)c2c-4c(O)c(O)c(O)c2[C@@H]1O (some centres not stated) | < 50 µM | 4 µM | Not Active
O=C(OC[C@H]1OC(O)[C@@](O)(COC(=O)c2cc(O)c(O)c(O)c2)[C@@H]1O)c1cc(O)c(O)c(O)c1 (some centres not stated) [HAMAMELITANNIN] |  | > 100 µM | 
O=C1OCC2OC(=O)c3cc(O)c(O)c(O)c3-c3c(O)c(O)c(O)c4c3C(=O)OC(C2OC(=O)c2cc(O)c(O)c(O)c2-c2c1cc(O)c(O)c2O)C1OC(=O)c2c-4c(O)c(O)c(O)c2[C@H]1O (some centres not stated) | < 50 µM | 8 µM | Not Active
O=C1OCC2OC(=O)c3cc(O)c(O)c(O)c3-c3c(O)c(O)c(O)c4c3C(=O)OC(C2OC(=O)c2cc(O)c(O)c(O)c2-c2c1cc(O)c(O)c2O)C1OC(=O)c2c-4c(O)c(O)c(O)c2[C@@H]1[C@@]1(O)O[C@@H](CO)[C@@H](O)[C@H]1O (some centres not stated) | < 50 µM | 12 µM | Not Active
O=C(O[C@@H]1[C@@H](c2c(O)cc(O)c3c2O[C@H](c2ccc(O)c(O)c2)[C@H](OC(=O)c2cc(O)c(O)c(O)c2)C3)c2c(O)cc(O)cc2O[C@@H]1c1ccc(O)c(O)c1)c1cc(O)c(O)c(O)c1 | < 50 µM | 4 µM | Not Active
O=C1O[C@H]2[C@@H]3OC(=O)c4cc(O)c(O)c(O)c4-c4c(cc(O)c(O)c4O)C(=O)OC[C@H]2O[C@H](OC(=O)c2cc(O)c(O)c(O)c2)[C@@H]3OC(=O)c2cc(O)c(O)c3c2C2C1=CC(=O)C(O)(O)C2(O)O3 (some centres not stated) |  | 11 µM | Not Active
O=C(O[C@@H]1C[C@](O)(C(=O)O)C[C@@H](OC(=O)c2cc(O)c(O)c(O)c2)[C@H]1OC(=O)c1cc(O)c(O)c(O)c1)c1cc(O)c(O)c(O)c1 |  | > 100 µM | 
CC1O[C@H](O)C2OC(=O)c3cc(O)c(O)c(O)c3-c3c(cc(O)c(O)c3O)C(=O)OC2C1O (some centres not stated) |  | > 100 µM | 

Reference: ChEMBL document CHEMBL1149998, “Tannins as selective inhibitors of protein kinase C” (Bioorg Med Chem Lett, 1992)
